# Experiments:
# Format in all cases: binding
# 5-HT1A receptor = target: T1, 5-HT1A receptor (Homo sapiens, UniProt P08908); test: IC50 at the 5-HT1A receptor
# T1 sequence (P08908 1-422): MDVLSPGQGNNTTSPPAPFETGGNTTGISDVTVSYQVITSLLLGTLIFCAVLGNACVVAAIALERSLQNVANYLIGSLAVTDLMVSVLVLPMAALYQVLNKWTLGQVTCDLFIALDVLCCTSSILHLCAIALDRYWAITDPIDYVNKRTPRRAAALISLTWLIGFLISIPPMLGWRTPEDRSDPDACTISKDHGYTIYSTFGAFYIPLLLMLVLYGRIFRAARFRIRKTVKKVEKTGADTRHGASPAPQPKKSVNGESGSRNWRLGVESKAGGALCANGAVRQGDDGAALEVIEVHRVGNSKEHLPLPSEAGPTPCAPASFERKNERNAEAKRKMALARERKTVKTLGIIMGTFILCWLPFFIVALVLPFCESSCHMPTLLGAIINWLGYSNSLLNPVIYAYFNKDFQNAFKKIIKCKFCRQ
# 5-HT1D receptor = 5-HT1D receptor (Homo sapiens, UniProt P28221); test: IC50 at the 5-HT1D receptor
# 5-HT2C receptor = 5-HT2C receptor (Homo sapiens, UniProt P28335); test: IC50 at the 5-HT2C receptor
# 5-HT1B receptor = 5-HT1B receptor (Homo sapiens, UniProt P28222); test: IC50 at the 5-HT1B receptor
# D2 receptor = D2 receptor (Homo sapiens, UniProt P14416); test: IC50 at the D2 receptor
# 5-HT2A receptor = target: T2, 5-HT2A receptor (Rattus norvegicus, UniProt P14842); test: affinity to 5-HT2A receptors, [3H]ketanserine displacement (Example A1)
# T2 construct: Frontal rat cortex is homogenised in ice-cold buffer; from tissue; host or cells: rat frontal cortex homogenate
# Description: For in-vitro detection of the affinity to 5-HT2A receptors, the following test (Example A1), for example, can be used. The 5-HT2A receptors are exposed both to [^3H]ketanserine (a substance which is known for its affinity to the receptor) and also to the test compound. The decrease in the affinity of [^3H]ketanserine to the receptor is an indication of the affinity of the test substance to the 5-HT2A receptor. The detection is carried out analogously to the description by J. E. Leysen et al., Molecular Pharmacology, 1982, 21: 301-314, or as also described, for example, in EP 0320983.
# Preparation of a suspension of 5-HT2A receptors: Frontal rat cortex is homogenised in ice-cold buffer. The homogenate is centrifuged at 4° C. and 50,000×for 10 minutes. The pellet is re-suspended in 2.5 ml of ice-cold tris buffer, made up with 10 ml of additional buffer and centrifuged as described. The pellet is then re-suspended in buffer and diluted to give a homogenate which comprises 60 mg of material/ml. 0.1 ml of the suspension, 100 μl of a 5 nM solution of [^3H]ketanserine, 100 μl of a solution of the test compound (concentration in the range from 10^−5 to 10^−10 mol per litre) are introduced into the incubation tubes and made up to 1 ml with buffer. The tubes are incubated at 37° C. for 15 minutes. […] The filters are analysed by liquid scintillation spectrometry in 8 ml of Triton-X scintillator liquid.
# T2 sequence (P14842 whole entry): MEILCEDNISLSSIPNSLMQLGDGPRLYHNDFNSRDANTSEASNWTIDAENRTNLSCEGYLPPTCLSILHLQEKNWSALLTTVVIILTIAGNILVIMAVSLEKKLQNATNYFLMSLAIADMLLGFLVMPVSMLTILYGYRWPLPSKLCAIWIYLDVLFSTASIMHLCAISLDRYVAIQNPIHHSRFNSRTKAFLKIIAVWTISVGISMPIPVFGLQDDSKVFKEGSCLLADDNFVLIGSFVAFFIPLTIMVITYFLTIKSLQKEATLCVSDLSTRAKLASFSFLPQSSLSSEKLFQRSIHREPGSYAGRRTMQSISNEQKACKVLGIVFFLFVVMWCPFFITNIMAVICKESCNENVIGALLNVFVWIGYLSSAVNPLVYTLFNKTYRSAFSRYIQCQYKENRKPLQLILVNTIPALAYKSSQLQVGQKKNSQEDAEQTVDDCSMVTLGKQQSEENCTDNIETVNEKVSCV
# Chain of 5-HT1D receptor (P28221 whole entry): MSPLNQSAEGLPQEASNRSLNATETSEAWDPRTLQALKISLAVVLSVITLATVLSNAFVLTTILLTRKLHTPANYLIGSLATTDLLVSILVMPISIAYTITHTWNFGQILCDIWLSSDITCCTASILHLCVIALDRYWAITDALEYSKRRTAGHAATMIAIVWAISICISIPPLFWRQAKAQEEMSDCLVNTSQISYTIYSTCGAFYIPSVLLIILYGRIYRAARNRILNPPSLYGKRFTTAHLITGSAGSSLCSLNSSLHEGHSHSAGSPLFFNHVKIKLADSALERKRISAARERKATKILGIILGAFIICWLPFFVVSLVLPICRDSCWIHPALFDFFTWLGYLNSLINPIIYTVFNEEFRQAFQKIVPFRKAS
# Chain of D2 receptor (P14416 whole entry): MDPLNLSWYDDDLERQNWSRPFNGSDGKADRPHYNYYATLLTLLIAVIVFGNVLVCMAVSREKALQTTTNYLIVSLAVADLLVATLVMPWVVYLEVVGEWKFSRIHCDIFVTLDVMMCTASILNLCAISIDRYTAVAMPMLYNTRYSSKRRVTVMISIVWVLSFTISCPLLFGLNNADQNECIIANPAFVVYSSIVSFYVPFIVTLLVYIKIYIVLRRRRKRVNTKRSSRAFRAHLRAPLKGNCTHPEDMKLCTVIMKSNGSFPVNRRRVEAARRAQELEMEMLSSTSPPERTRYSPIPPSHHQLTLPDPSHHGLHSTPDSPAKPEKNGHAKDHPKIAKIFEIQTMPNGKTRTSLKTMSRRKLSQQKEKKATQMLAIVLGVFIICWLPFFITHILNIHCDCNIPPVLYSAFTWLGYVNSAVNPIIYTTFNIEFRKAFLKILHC
# Chain of 5-HT1B receptor (P28222 whole entry): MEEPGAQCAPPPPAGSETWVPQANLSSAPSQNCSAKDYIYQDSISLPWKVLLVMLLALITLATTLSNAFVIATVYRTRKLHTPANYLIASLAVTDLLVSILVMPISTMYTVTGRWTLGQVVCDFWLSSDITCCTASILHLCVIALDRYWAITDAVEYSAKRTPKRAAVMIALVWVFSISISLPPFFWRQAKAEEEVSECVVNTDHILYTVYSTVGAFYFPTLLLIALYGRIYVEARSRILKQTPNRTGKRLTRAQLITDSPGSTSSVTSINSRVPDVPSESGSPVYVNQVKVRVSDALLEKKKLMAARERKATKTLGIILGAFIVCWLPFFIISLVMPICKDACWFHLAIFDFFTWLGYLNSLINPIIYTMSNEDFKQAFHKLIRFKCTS
# Chain of 5-HT2C receptor (P28335 33-458): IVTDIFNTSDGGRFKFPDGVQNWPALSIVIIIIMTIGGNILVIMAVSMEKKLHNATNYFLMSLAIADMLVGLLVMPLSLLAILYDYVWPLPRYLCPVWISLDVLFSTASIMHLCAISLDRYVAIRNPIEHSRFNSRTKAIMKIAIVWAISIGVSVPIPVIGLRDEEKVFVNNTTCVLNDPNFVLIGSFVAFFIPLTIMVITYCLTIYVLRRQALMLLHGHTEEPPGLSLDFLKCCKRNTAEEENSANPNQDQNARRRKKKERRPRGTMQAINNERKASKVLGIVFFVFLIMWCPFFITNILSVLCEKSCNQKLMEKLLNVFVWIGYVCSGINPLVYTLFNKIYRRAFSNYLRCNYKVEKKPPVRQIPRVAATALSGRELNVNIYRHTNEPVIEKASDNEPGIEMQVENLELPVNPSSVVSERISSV
structure (smiles),measurement,setting,value
"O=C(c1nccc2ccccc12)N1CCN(CCc2ccc(F)cc2)CC1 [Example 1, {4-[2-(4-fluorophenyl)ethyl]piperazin-1-yl}isoquinolin-1-ylmethanone]",IC50,5-HT1A receptor,> 1000 nM
same,IC50,5-HT1D receptor,> 1000 nM
same,IC50,5-HT2C receptor,> 1000 nM
same,IC50,5-HT1B receptor,> 1000 nM
same,IC50,D2 receptor,> 1000 nM
same,IC50,5-HT2A receptor,1 nM
same,factor by which the affinities differ,"5-HT2A receptor; 5-HT2A versus 5-HT2C, 5-HT1A, 5-HT1B, 5-HT1D and D2 receptors",greater than 1000

# Reference: patent US7329749B2, “Piperazinylcarbonylquinolines and -isoquinolines” (Merck Patent Gesellschaft, priority 2001, dated 2008)
